Legend:
Assay in all cases: relative viability (nuclei count vs DMSO), 5 days (fraction); higher = more cells survive
Tipifarnib + Trametinib = compound: Cn1cncc1[C@@](N)(c1ccc(Cl)cc1)c1ccc2c(c1)c(-c1cccc(Cl)c1)cc(=O)n2C [Tipifarnib] + CC(=O)Nc1cccc(-n2c(=O)n(C3CC3)c(=O)c3c(Nc4ccc(I)cc4F)n(C)c(=O)c(C)c32)c1 [Trametinib] (partner 0.02 µM)
How it was run: (§1)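 The day after seeding in 1536-well plates, lung cancer cell lines were treated by pin tool with a single drug, or with a fixed anchor-drug dose together with five library-drug doses (not always all listed) in √10 steps. After 5 days, a combined fix-and-stain solution (final 0.05% Triton X-100, 1% formaldehyde, 1 ug/ml Hoechst) was added. Nuclei counted on 4× images gave relative viability as treated counts over vehicle counts, reported as the median of duplicate plates.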

Tipifarnib + Navitoclax = compound: Cn1cncc1[C@@](N)(c1ccc(Cl)cc1)c1ccc2c(c1)c(-c1cccc(Cl)c1)cc(=O)n2C [Tipifarnib] + CC1(C)CCC(c2ccc(Cl)cc2)=C(CN2CCN(c3ccc(C(=O)NS(=O)(=O)c4ccc(N[C@H](CCN5CCOCC5)CSc5ccccc5)c(S(=O)(=O)C(F)(F)F)c4)cc3)CC2)C1 [Navitoclax] (partner 0.5 µM)
How it was run: as §1

Tipifarnib + Phenformin = compound: Cn1cncc1[C@@](N)(c1ccc(Cl)cc1)c1ccc2c(c1)c(-c1cccc(Cl)c1)cc(=O)n2C [Tipifarnib] + N=C(N)NC(=N)NCCc1ccccc1 [Phenformin] (partner 250 µM)
How it was run: as §1

Tipifarnib + Pemetrexed = compound: Cn1cncc1[C@@](N)(c1ccc(Cl)cc1)c1ccc2c(c1)c(-c1cccc(Cl)c1)cc(=O)n2C [Tipifarnib] + Nc1nc2[nH]cc(CCc3ccc(C(=O)N[C@@H](CCC(=O)O)C(=O)O)cc3)c2c(=O)[nH]1 [Pemetrexed] (partner 0.2 µM)
How it was run: as §1

Cell Line	relative viability (Tipifarnib + Trametinib; first compound 0.01 µM)	relative viability (Tipifarnib + Trametinib; first compound 0.03162 µM)	relative viability (Tipifarnib + Trametinib; first compound 0.1 µM)	relative viability (Tipifarnib + Trametinib; first compound 0.3162 µM)	relative viability (Tipifarnib + Trametinib; first compound 1 µM)	relative viability (Tipifarnib + Navitoclax; first compound 0.01 µM)	relative viability (Tipifarnib + Navitoclax; first compound 0.03162 µM)	relative viability (Tipifarnib + Navitoclax; first compound 0.1 µM)	relative viability (Tipifarnib + Navitoclax; first compound 0.3162 µM)	relative viability (Tipifarnib + Navitoclax; first compound 1 µM)	relative viability (Tipifarnib + Phenformin; first compound 0.01 µM)	relative viability (Tipifarnib + Phenformin; first compound 0.03162 µM)	relative viability (Tipifarnib + Phenformin; first compound 0.1 µM)	relative viability (Tipifarnib + Phenformin; first compound 0.3162 µM)	relative viability (Tipifarnib + Phenformin; first compound 1 µM)	relative viability (Tipifarnib + Pemetrexed; first compound 0.01 µM)	relative viability (Tipifarnib + Pemetrexed; first compound 0.03162 µM)	relative viability (Tipifarnib + Pemetrexed; first compound 0.1 µM)	relative viability (Tipifarnib + Pemetrexed; first compound 0.3162 µM)	relative viability (Tipifarnib + Pemetrexed; first compound 1 µM)
NCI-H1975	0.316	0.272	0.337	0.252	0.288	1.29	1.04	1.08	0.541	0.734	0.435	0.403	0.413	0.347	0.274	0.258	0.285	0.3	0.241	0.251
NCI-H1437	0.591	0.596	0.619	0.406	0.446	1.14	1.07	1.06	1.03	0.927	0.266	0.315	0.296	0.218	0.228	0.32	0.344	0.322	0.285	0.297
NCI-H2009	0.265	0.21	0.192	0.183	0.185	1.13	1.06	0.785	0.63	0.744	0.525	0.492	0.388	0.386	0.352	0.979	0.999	0.7	0.658	0.694
NCI-H1651	0.827	0.754	0.781	0.832	0.802	1.15	1.21	0.994	0.912	0.895	0.322	0.327	0.319	0.266	0.235	0.592	0.636	0.676	0.635	0.522
NCI-H1666	0.832	0.798	0.846	0.811	0.679	0.853	0.758	0.727	0.644	0.637	0.526	0.502	0.552	0.471	0.575	0.908	0.889	0.766	0.844	0.842
NCI-H1734	0.66	0.555	0.556	0.478	0.407	0.882	0.718	0.635	0.464	0.431	0.391	0.352	0.373	0.251	0.275	0.38	0.442	0.428	0.419	0.394
EPLC-272H	0.336	0.274	0.246	0.303	0.234	1.34	0.908	1.07	0.837	0.741	0.357	0.328	0.344	0.266	0.149	0.248	0.364	0.358	0.35	0.252
NCI-H2023	0.46	0.373	0.403	0.228	0.234	1.01	0.773	0.68	0.457	0.47	0.415	0.381	0.273	0.272	0.236	0.242	0.289	0.19	0.212	0.198
BEN	0.95	0.87	0.873	0.856	0.761	0.0636	0.0524	0.0587	0.0688	0.0536	0.294	0.272	0.273	0.255	0.262	0.802	0.81	0.776	0.737	0.598
COR-L 105	0.409	0.491	0.427	0.43	0.369	0.874	0.578	0.739	0.576	0.559	0.387	0.389	0.447	0.339	0.281	1.16	1.11	0.814	0.784	0.793
HCC-15	0.36	0.35	0.273	0.258	0.221	0.66	0.618	0.555	0.335	0.334	0.407	0.392	0.368	0.338	0.223	0.227	0.254	0.226	0.222	0.232
NCI-H2170	1.04	0.876	0.793	0.716	0.655	0.733	0.566	0.448	0.433	0.338	0.439	0.418	0.389	0.379	0.343	0.257	0.291	0.269	0.243	0.242
PC-3 [JPC-3]	0.726	0.61	0.531	0.494	0.478	0.814	0.648	0.749	0.532	0.416	0.513	0.44	0.458	0.399	0.377	1	1.11	0.592	0.448	0.42
NCI-H1993	0.575	0.476	0.485	0.594	0.61	0.852	0.866	0.765	0.645	0.671	0.414	0.508	0.529	0.518	0.559	0.664	0.55	0.647	0.427	0.605
NCI-H1915	0.298	0.269	0.214	0.201	0.195	0.791	0.65	0.768	0.455	0.469	0.383	0.359	0.341	0.267	0.236	0.549	0.449	0.449	0.353	0.298
RERF-LC-KJ	0.828	0.961	0.776	0.652	0.646	1.14	0.931	0.61	0.467	0.46	0.447	0.401	0.392	0.366	0.339	0.474	0.6	0.46	0.427	0.362

Reference: the supplement of paper PMC10307832
